Test results from patent US10758552B2, “Pharmaceutical composition containing combinations of nicotinamide and 5-aminosalicylic acid for beneficially influencing the intestinal microbiota and/or treating gastrointestinal inflammation” (CONARIS RESEARCH INSTITUTE AG, priority 2013, dated 2020).

Assays:
[1] = system: murine DSS colitis model; assay: DSS colitis model in mice on normal diet, disease activity index (DAI) scoring (Example 2); type: in vivo, C57BL/6J mice; details: for % improvement of DAI vs DSS: granules in food, 2.5% DSS
Experimental: In a second and much larger study, NAM and 5-ASA controlled release granules were used again in the murine DSS colitis model (see Example 1) to confirm the anti-inflammatory properties of NAM in one low dose (30 mg/kg) and to investigate two higher dosages (120 or 240 mg/kg) not administered in the first study. […] One very important difference to the first study described in Example 1 was the fact that the mice received normal food with normal levels of tryptophan, nicotinic acid and nicotinamide (SAFE diet A4; Scientific Animal Food and Engineering, Augy, France; see Example 1). Therefore, any effects observed in this second study cannot be due to supplementation of NAM to NA/NAM/Trp-starved mice. In the present study, the same DSS colitis model in C57BL/6J mice as in Example 1 was used, albeit with some minor modifications: 2.5% DSS were used to provide a stronger DSS challenge. The animals were acclimatised for one week to stabilise their microbiota, randomised into 9 different groups as illustrated in the following Table 1 and then kept for 10 days on the different diets (days -10 to -1) before inducing colitis by DSS in the drinking water (day 0-day 6) followed by a washout period with normal drinking water (day 6-day 9). All groups received 2.5% DSS. [table] [table] The 5-ASA granules were the same as in Example 1. Their 5-ASA content was 52% (one granule weighed 0.5 mg and contained 0.26 mg of 5-ASA). The 5-ASA granules were mixed with regular food for preparation of single-use food aliquots, which were stored frozen at -20° C. and thawed daily prior to feeding the mice. […] Therefore, the food was prepared with 2.88 g of granules per kg of food (for the 150 mg/kg dose) or 1.44 g/kg (for the 75 mg/kg dose). The NAM granules of the present example were produced by the same manufacturer and in a similar formulation (diameter: 0.355-0.500 mm; NAM content: 19.1%) as in Example 1. Three kinds of food were prepared in an analogous fashion to the food with 5-ASA granules as described above. […] Therefore, the food preparation for the three dose groups was performed as follows: 1.57 g of granules per kg of food for the 30 mg/kg dose group, 6.28 g of granules per kg of food for the 120 mg/kg dose group and 12.56 g of granules per kg of food for the 240 mg/kg dose group. For the control group, food without granules was processed in the same fashion as the granule-containing food preparations described above in order to exclude preparation artefacts. After euthanasia, the colon was analysed and the disease activity index (DAI; score 0-9) was scored using an adapted DAI system based on […] et al. 2005 (Am. J. Physiol. Gastrointest. Liver Physiol. 288:[…]). As no visible blood was observed, the blood scoring parameter according to […] et al. was changed to scoring the signal strength for occult blood in feces detected by the ColoScreen test (Helena Laboratories, Beaumont, Tex., USA). This signal strength scoring was performed independently by two investigators blinded to the identity of the samples. [table] All comparisons were analysed using the […] for two independent samples in the StatXact software (Cytel, Cambridge, Mass., USA).

[2] = system: dextrane sodium sulfate (DSS) colitis model in mice; assay: DSS colitis model in mice on Trp/Nia/NAM-free diet, histological scoring of the colon (Example 1); type: in vivo, C57BL/6J mice; details: 1.5% DSS
Experimental: In order to characterise the combined effect of 5-ASA and nicotinamide (NAM) in controlled release formulations for targeted delivery of both substances to the intestinal epithelium, a study was conducted in a dextrane sodium sulfate (DSS) colitis model in mice. In this study, a controlled release granule formulation for was tested in two different doses (30 mg/kg and 60 mg/kg). As a representative controlled release formulation for 5-ASA, 5-ASA granules ([…]®; Ferring Pharmaceuticals, Saint-Prex, Switzerland) were used both alone and in combination with the NAM granules. The controlled release formulation for NAM is a granulate of 25% nicotinamide, 70% dibasic calcium phosphate and 5% Povidone K30. The mean particle size was 234 μm. […] Filtering removed particles with a size of less than 355 μm. Control granules replaced NAM with an equivalent amount of dibasic calcium phosphate. Male C57BL/6J mice (specific pathogen free; Charles River Laboratories, Saint-Germain-sur-l'Arbresle, France) were taken into the test facility at >12 weeks of age and acclimatised for 1 week. The diet during the acclimatisation phase was diet A4, produced by SAFE (Scientific Animal Food and Engineering, Augy, France). […] The fixed doses for the other granules were calculated in an analogous fashion. […]

Compound | stool consistency (diarrhea) ([1]; 75 mg/kg 5-ASA alone) | % improvement of DAI vs DSS ([1]; 75 mg/kg 5-ASA) [%] | stool consistency (diarrhea) ([1]; 150 mg/kg 5-ASA alone) | % improvement of DAI vs DSS ([1]; 150 mg/kg 5-ASA) [%] | mice having blood in the feces (occult blood) ([1]; 150 mg/kg 5-ASA, control mice 100%, day of necropsy) [%] | macroscopic inflammation score, dose effect ([1]; 5-ASA alone, 75 vs 150 mg/kg) | disease activity index (DAI), dose effect ([1]; doubling the dose of 5-ASA from 75 to 150 mg/kg) | histological score of the colonic mucosa ([2]; 5-ASA granules alone in diet, 150 mg/kg) | % improvement of DAI vs DSS ([1]; 30 mg/kg NAM) [%] | % improvement of DAI vs DSS ([1]; 120 mg/kg NAM) [%] | % improvement of DAI vs DSS ([1]; 240 mg/kg NAM) [%] | disease activity index (DAI), dose effect ([1]; NAM alone from 30 to 240 mg/kg) | macroscopic inflammation score, dose effect ([1]; NAM alone, 30 to 240 mg/kg) | stool consistency (diarrhea) ([1]; different NAM doses alone) | histological score of the colonic mucosa ([2]; NAM granules alone in diet, 30 or 60 mg/kg)
Nc1ccc(O)c(C(=O)O)c1 [5-ASA, 5-aminosalicylic acid] | hardly improved | 28 | significant effect | 43 | 53 | no difference | stronger decrease of the DAI | trend towards histological improvement | – | – | – | – | – | – | –
NC(=O)c1cccnc1 [NAM, nicotinamide] | – | – | – | – | – | – | – | – | 39 | 40 | 40 | no dose response | slight dose-dependent effect | hardly improved | trend towards histological improvement
